Data set [1] concerns Acinetobacter baumannii NCTC 13420. The format is cell-based. To be noted: NCTC 13420. As to the method: (§1) Bacterial strains were acquired from the American Type Culture Collection (ATCC, Virginia, USA) and the National Collection of Type Cultures (NCTC, Public Health England, Salisbury, UK). Minimum Inhibitory Concentration (MIC) of peptides versus gram-negative strains-Acinetobacter baumannii NCTC 13420, and Pseudomonas aeruginosa ATCC 27853 and gram-positive strain Staphylococcus aureus ATCC 29213, were determined by broth microdilution as per the guidelines of the Clinical and Laboratory Standards Institute (“Methods for Dilution Antimicrobial Susceptibility Tests for Bacteria That Grow Aerobically”; Approved Standard-Ninth Edition. CLSI document M07-A9, 2012). Peptides were dissolved in sterile distilled water, which was also used as the drug-free vehicle control when determining peptide MICs. Prior to use in the MIC protocol, bacterial strains were grown on Mueller Hinton agar at 37° C. in an ambient atmosphere. […] A fixed inoculum of the test microorganism (5×10^5 cells/mL) is also added to the plate. The MIC is determined as the lowest concentration of compound that inhibits visible bacterial growth following incubation at 37° C. for 16-20 hours. A difference in MIC of two-fold between experimental replicates is considered to be within the normal variability of this protocol.

Data set [2] concerns Pseudomonas aeruginosa ATCC 27853. The format is cell-based. The following applies: ATCC 27853. As to the method: as §1
The next data set deals with Human erythrocytes. The data set is described as follows: Haemolysis assay using human blood. The format is cell-based. To be noted: red cells of human, 1 h. How it is done: To determine the extent of haemolytic activity (the ability to lyse red blood cells) in test peptides, a haemolysis assay was conducted using human blood (BioIVT, West Sussex, UK). Human erythrocytes were exposed to a single fixed concentration or a range of concentrations as to determine the % haemolysis (fixed concentration) or the concentration at which 50% haemolysis occurred (HC50), respectively. Prior to the assay, whole human blood was repeatedly washed in phosphate buffered saline (PBS) under cooled conditions to remove the buffy coat, plasma and cell debris. Washed erythrocytes were diluted as to achieve 1×10^8 cells/mL in PBS. Prepared human erythrocyte samples were combined with peptide at a single fixed concentration of 128 μg/mL, or a range of concentrations (two-fold dilution series) from 1000-31.25 μg/mL. Positive and negative controls containing 2% (v/v) Triton X-100 and PBS alone, respectively, were also prepared. Samples were incubated at 37° C. for 1 hour and then centrifuged to collect intact erythrocytes. Haemoglobin release was determined by recording the optical density of the supernatant at 540 nm. Optical density values were transformed to a percentage of the positive control. Results were recorded as a percentage haemolysis at 128 μg/mL, or by plotting the percentage haemolysis versus concentration and extrapolating the HC50 using linear regression analysis (Table 2 above)
The therapeutic index is a widely-accepted parameter to represent the specificity of antimicrobial peptides for prokaryotic versus eukaryotic cells. It is calculated by the ratio of hemolytic activity and antimicrobial activity (MIC) (Table 2 above); thus, larger values of therapeutic index indicate greater specificity for prokaryotic cells. With the peptides used in this study the inventors used the HC50/MIC ratio value to calculate the therapeutic index.

Data set [3] can be described thus: Peptide hydrophobicity by RP-HPLC retention. The format is physicochemical. To be noted: for tR (relative hydrophobicity by RP-HPLC): Zorbax SB-300 C8, 0.25% B/min from 10% B, 0.3 ml/min, 30° C. An excerpt:
Retention behavior in RP-HPLC is an excellent method to represent overall peptide hydrophobicity. Retention times of peptides are highly sensitive to the conformational status of the peptides upon interaction with the hydrophobic environment of the column matrix^17,26. The non-polar faces of amphipathic alpha-helical and amphipathic cyclic beta-sheet peptides represent a preferred binding domain for interaction with the hydrophobic matrix of the reversed-phase column^27. In this study, the observed peptide hydrophobicity was determined by RP-HPLC retention time as described below and are relative hydrophobicities because they are dependent on the TFA concentration and organic solvent in the mobile phase, gradient rate, temperature, flow rate and the column used. Analytical Purification by Reversed-phase Chromatography: Analytical RP-HPLC: Column: Zorbax SB-300 C8 (150×2.1 mm ID; 5-μm particle size; 300 Å pore size). Conditions: linear AB gradient (0.25% B/min from 10% B) at a flow-rate of 0.3 ml/min, where Eluent A is 0.2% aq. TFA and Eluent B is 0.18% TFA in acetonitrile; 30° C.

Structures are written as SMILES. Peptide text beside a SMILES is read from it.

With `CC(=O)N[C@H](CCCCN)C(=O)N[C@H](CC(C)C)C(=O)N[C@H](CO)C(=O)N[C@H](CO)C(=O)N[C@H](CC(C)C)C(=O)N[C@H](CC(C)C)C(=O)N[C@H](CO)C(=O)N[C@H](CCCCN)C(=O)N[C@H](CC(C)C)C(=O)N[C@H](CCCCN)C(=O)N[C@H](CCCCN)C(=O)N[C@H](C)C(=O)N[C@H](CCCCN)C(=O)N[C@H](CCCCN)C(=O)N[C@H](CCCCN)C(=O)N[C@H](CCCCN)C(=O)N[C@H](CC(C)C)C(=O)N[C@H](CCCCN)C(=O)N[C@H](CCCCN)C(=O)N[C@H](CC(C)C)C(=O)N[C@H](CC(C)C)C(=O)N[C@H](CCCCN)C(=O)N[C@H](C)C(=O)N[C@H](CC(C)C)C(=O)N[C@H](CO)C(=O)N[C@H](CO)C(N)=O` [compound 5] (HELM PEPTIDE1{[ac].[dK].[dL].[dS].[dS].[dL].[dL].[dS].[dK].[dL].[dK].[dK].[dA].[dK].[dK].[dK].[dK].[dL].[dK].[dK].[dL].[dL].[dK].[dA].[dL].[dS].[dS].[am]}$$$$V2.0), the “Antimicrobial Activity MIC A. baumannii NCTC13420” value in data set [1] turned out to be 1 µg/mL. For the same compound, the “P. aeruginosa ATCC27853 MIC” value in data set [2] was 2 µg/mL. Moreover, in the data set on Human erythrocytes, the “Haemolysis HC50” value stood at 669 µg/mL.
On to `CC(=O)N[C@H](C)C(=O)N[C@H](CC(C)C)C(=O)N[C@H](CCCCN)C(=O)N[C@H](CCCCN)C(=O)N[C@H](CC(C)C)C(=O)N[C@H](CC(C)C)C(=O)N[C@H](CCCCN)C(=O)N[C@H](CCCCN)C(=O)N[C@H](CC(C)C)C(=O)N[C@H](CO)C(=O)N[C@H](CO)C(=O)N[C@H](C)C(=O)N[C@H](CCCCN)C(=O)N[C@H](CO)C(=O)N[C@H](CO)C(=O)N[C@H](CCCCN)C(=O)N[C@H](CC(C)C)C(=O)N[C@H](CO)C(=O)N[C@@H](C(=O)N[C@H](CC(C)C)C(=O)N[C@H](CC(C)C)C(=O)N[C@H](CCCCN)C(=O)N[C@H](CCCCN)C(=O)N[C@H](CC(C)C)C(=O)N[C@H](CCCCN)C(=O)N[C@H](CCCCN)C(N)=O)[C@H](C)O` [compound 8] (HELM PEPTIDE1{[ac].[dA].[dL].[dK].[dK].[dL].[dL].[dK].[dK].[dL].[dS].[dS].[dA].[dK].[dS].[dS].[dK].[dL].[dS].[dT].[dL].[dL].[dK].[dK].[dL].[dK].[dK].[am]}$$$$V2.0), for which, in data set [1], the “Antimicrobial Activity MIC A. baumannii NCTC13420” value amounted to 2 µg/mL. In addition, the “P. aeruginosa ATCC27853 MIC” value in data set [2] worked out at 4 µg/mL. Besides, the “Haemolysis HC50” value in the data set on Human erythrocytes was greater than 1000 µg/mL. Also, the “tR (relative hydrophobicity by RP-HPLC)” value in data set [3] came out at 94.51 min.
In the case of `CC(=O)N[C@H](C)C(=O)N[C@H](CC(C)C)C(=O)N[C@H](CO)C(=O)N[C@H](CO)C(=O)N[C@H](CC(C)C)C(=O)N[C@H](CC(C)C)C(=O)N[C@H](CO)C(=O)N[C@H](CCCCN)C(=O)N[C@H](CC(C)C)C(=O)N[C@H](CCCCN)C(=O)N[C@H](CCCCN)C(=O)N[C@H](C)C(=O)N[C@H](CCCCN)C(=O)N[C@H](CCCCN)C(=O)N[C@H](CCCCN)C(=O)N[C@H](CCCCN)C(=O)N[C@H](CC(C)C)C(=O)N[C@H](CCCCN)C(=O)N[C@H](CCCCN)C(=O)N[C@H](CC(C)C)C(=O)N[C@H](CC(C)C)C(=O)N[C@H](CCCCN)C(=O)N[C@H](C)C(=O)N[C@H](CC(C)C)C(=O)N[C@H](CO)C(=O)N[C@H](CO)C(N)=O` [compound 10] (HELM PEPTIDE1{[ac].[dA].[dL].[dS].[dS].[dL].[dL].[dS].[dK].[dL].[dK].[dK].[dA].[dK].[dK].[dK].[dK].[dL].[dK].[dK].[dL].[dL].[dK].[dA].[dL].[dS].[dS].[am]}$$$$V2.0), the “Antimicrobial Activity MIC A. baumannii NCTC13420” value in data set [1] is 2 µg/mL. Also, in data set [2], the “P. aeruginosa ATCC27853 MIC” value is 2 µg/mL. Further, the “Haemolysis HC50” value in the data set with Human erythrocytes is greater than 1000 µg/mL.
Take `CC(=O)N[C@H](CCCCN)C(=O)N[C@H](CC(C)C)C(=O)N[C@H](CCCCN)C(=O)N[C@H](CCCCN)C(=O)N[C@H](CC(C)C)C(=O)N[C@H](CC(C)C)C(=O)N[C@H](CCCCN)C(=O)N[C@H](CCCCN)C(=O)N[C@H](CC(C)C)C(=O)N[C@H](CO)C(=O)N[C@H](CO)C(=O)N[C@H](C)C(=O)N[C@H](CCCN)C(=O)N[C@H](CO)C(=O)N[C@H](CO)C(=O)N[C@H](CCCN)C(=O)N[C@H](CC(C)C)C(=O)N[C@H](CO)C(=O)N[C@@H](C(=O)N[C@H](CC(C)C)C(=O)N[C@H](CC(C)C)C(=O)N[C@H](CCCCN)C(=O)N[C@H](CCCCN)C(=O)N[C@H](CC(C)C)C(=O)N[C@H](CCCCN)C(=O)N[C@H](CCCCN)C(N)=O)[C@H](C)O` [compound 14] (HELM PEPTIDE1{[ac].[dK].[dL].[dK].[dK].[dL].[dL].[dK].[dK].[dL].[dS].[dS].[dA].[NCCC[C@@H](N[*:1])C(=O)[*:2]].[dS].[dS].[NCCC[C@@H](N[*:1])C(=O)[*:2]].[dL].[dS].[dT].[dL].[dL].[dK].[dK].[dL].[dK].[dK].[am]}$$$$V2.0): in data set [1], the “Antimicrobial Activity MIC A. baumannii NCTC13420” value worked out at 2 µg/mL. Besides, in data set [2], the “P. aeruginosa ATCC27853 MIC” value is 4 µg/mL. The “Haemolysis HC50” value in the data set on Human erythrocytes was greater than 1000 µg/mL. Further, in data set [3], the “tR (relative hydrophobicity by RP-HPLC)” value is 83.40 min. Also, in data set [3] (retention time difference to the Lys13/Lys16 parent peptide), the “ΔtR (Lys)” value is recorded as 3.97 min.
Consider `CC(=O)N[C@H](C)C(=O)N[C@H](CC(C)C)C(=O)N[C@H](CCCCN)C(=O)N[C@H](CO)C(=O)N[C@H](CC(C)C)C(=O)N[C@H](CC(C)C)C(=O)N[C@H](CCCCN)C(=O)N[C@H](CCCCN)C(=O)N[C@H](CC(C)C)C(=O)N[C@H](CO)C(=O)N[C@H](CCCCN)C(=O)N[C@H](C)C(=O)N[C@H](CCCCN)C(=O)N[C@H](CCCCN)C(=O)N[C@H](CCCCN)C(=O)N[C@H](CCCCN)C(=O)N[C@H](CC(C)C)C(=O)N[C@H](CCCCN)C(=O)N[C@H](CCCCN)C(=O)N[C@H](CC(C)C)C(=O)N[C@H](CC(C)C)C(=O)N[C@H](CCCCN)C(=O)N[C@H](C)C(=O)N[C@H](CC(C)C)C(=O)N[C@H](CO)C(=O)N[C@H](CO)C(N)=O` [compound 23] (HELM PEPTIDE1{[ac].[dA].[dL].[dK].[dS].[dL].[dL].[dK].[dK].[dL].[dS].[dK].[dA].[dK].[dK].[dK].[dK].[dL].[dK].[dK].[dL].[dL].[dK].[dA].[dL].[dS].[dS].[am]}$$$$V2.0), for which, in data set [1], the “Antimicrobial Activity MIC A. baumannii NCTC13420” value came to 2 µg/mL. Further, in data set [2], the “P. aeruginosa ATCC27853 MIC” value worked out at 2 µg/mL. Moreover, the “Haemolysis HC50” value in the data set on Human erythrocytes was found to be 175 µg/mL.
Turning to `CC(=O)N[C@H](CCCCN)C(=O)N[C@H](CC(C)C)C(=O)N[C@H](CCCCN)C(=O)N[C@H](CO)C(=O)N[C@H](CC(C)C)C(=O)N[C@H](CC(C)C)C(=O)N[C@H](CCCCN)C(=O)N[C@H](CO)C(=O)N[C@H](CC(C)C)C(=O)N[C@H](CO)C(=O)N[C@H](CCCCN)C(=O)N[C@H](C)C(=O)N[C@H](CCCCN)C(=O)N[C@H](CCCCN)C(=O)N[C@H](CCCCN)C(=O)N[C@H](CCCCN)C(=O)N[C@H](CC(C)C)C(=O)N[C@H](CCCCN)C(=O)N[C@H](CO)C(=O)N[C@H](CC(C)C)C(=O)N[C@H](CC(C)C)C(=O)N[C@H](CCCCN)C(=O)N[C@H](C)C(=O)N[C@H](CC(C)C)C(=O)N[C@H](CO)C(=O)N[C@H](CCCCN)C(N)=O` [compound 26] (HELM PEPTIDE1{[ac].[dK].[dL].[dK].[dS].[dL].[dL].[dK].[dS].[dL].[dS].[dK].[dA].[dK].[dK].[dK].[dK].[dL].[dK].[dS].[dL].[dL].[dK].[dA].[dL].[dS].[dK].[am]}$$$$V2.0), the “Antimicrobial Activity MIC A. baumannii NCTC13420” value in data set [1] is 1 µg/mL. Also, the “P. aeruginosa ATCC27853 MIC” value in data set [2] is 2 µg/mL. Further, the “Haemolysis HC50” value in the data set with Human erythrocytes was greater than 1000 µg/mL.

The values above are taken from patent US20200377561A1, “ANTIMICROBIAL PEPTIDES AND METHODS OF TREATING GRAM-NEGATIVE PATHOGEN INFECTIONS: POLAR AND NON-POLAR FACE ANALOGS” (THE REGENTS OF THE UNIVERSITY OF COLORADO, a body corporate, priority 2017, published 2020).
